Assay results from US9642922B2, “Caspase-triggered nano-aggregation probes and methods of use” (The Board of Trustees of the Leland Stanford Junior …, priority 2013, dated 2017).
Marks after values point to notes of the source that are not given here.

What was measured:
[1] = test system: subcutaneous HeLa tumors; experiment: In vivo fluorescence imaging of DOX-treated HeLa tumor-bearing mice; parameters: species or system mouse
Procedure: C-SNAF or either of the control probes (5 nmol) was administered intravenously to tumor-bearing mice and whole animal fluorescence was longitudinally monitored using a Maestro fluorescence imager.
To establish tumors in 6-week-old female nu/nu mice, 2×10^6 HeLa cells suspended in 50 μL of a 50% v/v mixture of Matrigel in supplemented DMEM (10% FBS, 1% penstrep) were injected subcutaneously in the shoulders of the mouse. Tumors were grown until a single aspect was 0.7 to 0.9 cm (approximately 10-15 days), and then treatment consisting of 8 mg/kg DOX or saline was initiated. Treatments were administered intravenously once every 4 d for a total of three times. Total mouse body weight and tumor size (width and length by caliper) was measured every other day. Tumor volumes were calculated assuming ellipsoid shape with the formula (l×w^2)/2.
Two days following the final treatment, 5 nmol probe in saline was injected intravenously and fluorescence imaging began immediately on a Maestro hyperspectral fluorescent imaging system (PerkinElmer, Mass., USA) using a 635±25 nm excitation filter and a 675 nm long-pass emission filter, with images acquired from 670 to 900 nm. Tissue autofluorescence and Cy5.5 fluorescence were deconvolved, and tumor fluorescence intensity was quantified by region of interest measurement using Nuance v.3.0.1.2 software (Perkin Elmer, Mass., USA).

[2] = test system: STS-induced apoptotic HeLa cells; experiment: Flow cytometry of STS-induced apoptotic HeLa cells labeled with probes; format: cell-based, human; settings: 2 μM probe, compared with C-SNAF
Procedure: Approximately 10^5 HeLa cells in 1 mL DMEM medium were seeded onto 12-well plates. […] For the inhibitor blocking experiment, the STS-treated cells were first incubated with the caspase inhibitor Z-VAD-fmk (50 μM, R&D Systems) for 30 min, and then 2 μM C-SNAF was added. All cells incubations were 24 h, followed by staining with FLICA (FAM) after trypsinization. After washing with PBS (1×) three times, the cell pellets were resuspended in 300 μL PBS and applied for flow cytometry analysis using the FITC and Cy5.5 channels. The cell number for each flow cytometry analysis was approximately 5000 to 10000, and the data was processed using FlowJo software.

[3] = test system: apoptotic HeLa cells; experiment: Epifluorescence microscopy of apoptotic HeLa cells labeled with probes; format: cell-based, human; settings: microscopy, 2 μM probe
Procedure: After removal of the medium, the cells were incubated with C-SNAF, L-ctrl, or D-ctrl at 2 μM for 24 h. Some cells were first incubated with caspase inhibitor (Z-VAD-fmk, 50 μM) for 30 min, followed by incubating with 2 μM C-SNAF for 24 h. The cells were carefully washed with PBS (1×) three times, and stained with Hoechst 33342 (2 μM) at 37° C. for 30 min. After rinses with PBS (1×) several times, the medium was replaced and the fluorescence images were acquired with DAPI and Cy5.5 filters. The images were processed using the standard CRi Nuance software, analyzed using Image J software package (NIH), and presented at the same intensity scale for comparison.
HeLa cells in #1.5 borosilicate 8-well chambered coverslips (Nunc) were either incubated with C-SNAF (2 μM) alone or co-incubated with DOX (1, 2, and 5 μM) and 2 μM C-SNAF, 2 μM C-SNAF together with caspase inhibitor (Z-VAD-fmk, 50 μM), or control probes D-ctrl and L-ctrl at 2 μM for 24 h. Then the medium was removed, the cells were carefully washed with PBS (1×) three times, and stained with nuclear binding probe Hoechst 33342 (2 μM) at 37° C. for 30 min. After several rinses with PBS (1×), the medium was replaced and the fluorescence images were acquired with DAPI and […] filters.

[4] = molecular target: T1, caspase-3 (Homo sapiens, UniProt P42574); experiment: HPLC assay of caspase-3-triggered macrocyclization of C-SNAF; format: biochemical; parameters: purchased Sigma; host or cells: E. coli; settings: same conditions as C-SNAF; D-ctrl after 24 h
T1 sequence (P42574 29-175 limits assumed): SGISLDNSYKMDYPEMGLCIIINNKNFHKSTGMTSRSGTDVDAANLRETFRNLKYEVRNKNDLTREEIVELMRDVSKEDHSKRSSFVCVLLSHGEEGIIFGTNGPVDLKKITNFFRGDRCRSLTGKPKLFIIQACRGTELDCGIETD
T1 sequence (P42574 176-277 limits assumed): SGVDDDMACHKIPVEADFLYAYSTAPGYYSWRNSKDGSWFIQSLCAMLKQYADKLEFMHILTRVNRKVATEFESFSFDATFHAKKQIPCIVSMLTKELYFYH
Procedure: The progression of caspase-3-triggered macrocyclization of C-SNAF to form C-SNAF-cycl in solution was monitored using high-performance liquid chromatography (HPLC) following incubation of the probe (25 μM) with recombinant human caspase-3 (4.9×10^−[…]).
Caspase (human, recombinant from E. coli) assays were performed for caspase-3 (4.9×10^−3 U; 7.35×10^−4 mg, Sigma), −7 (18.3 U; 7.35×10^−4 mg, Calbiochem), and −9 (0.3 U; 7.35×10^−4 mg, Calbiochem). All caspase assays were conducted in caspase buffer with 50 mM HEPES, 100 mM NaCl, 1 mM EDTA, 10 mM TCEP, 10% glycerol, and 0.1% CHAPS at pH 7.4. Cathepsin B (human liver; 0.27 U; 7.35×10^−4 mg, Calbiochem) and Legumain (human, recombinant from mouse myeloma cell line; >250 pmol/min/μg; 7.35×10^−4 mg, R&D Systems) were conducted in reaction buffer with 50 mM sodium acetate, 50 mM NaCl, 0.5 mM EDTA and 10 mM TCEP at pH 5.5. C-SNAF was diluted in the respective enzyme reaction buffer (25 μM, 1 mL) and remained at room temperature for 10 min, to which was then added the respective enzymes. Reactions were performed at 37° C., and monitored by HPLC hourly. The percentage conversion of the reaction was calculated based on the percentage of peak area of C-SNAF-cycl in the HPLC trace at 675 nm UV detection, which indicated the efficacy of enzyme cleavage of C-SNAF.

[5] = molecular target: T2, Caspase-3 (Mus musculus, UniProt P70677); settings: cited from earlier work
T2 sequence (P70677 29-175 limits assumed): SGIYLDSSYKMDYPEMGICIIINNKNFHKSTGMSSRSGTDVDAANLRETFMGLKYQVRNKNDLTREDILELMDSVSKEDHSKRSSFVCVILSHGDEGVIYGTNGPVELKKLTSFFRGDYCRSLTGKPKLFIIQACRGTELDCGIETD
T2 sequence (P70677 176-277 limits assumed): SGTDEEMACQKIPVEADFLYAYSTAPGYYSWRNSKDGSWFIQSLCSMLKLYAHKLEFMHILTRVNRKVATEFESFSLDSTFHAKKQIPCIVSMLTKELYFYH

[6] = test system: PS binding; settings: cited from earlier work

For `CC[N+]1=C(C=CC=CC=C2N(CCCCCC(=O)NCCCCC(NC(=O)C(CSC)NC(=O)C(CC(=O)O)NC(=O)C(NC(=O)C(CCC(=O)O)NC(=O)C(CC(=O)O)NC(C)=O)C(C)C)C(=O)Nc3ccc4nc(C5=NC(C(=O)NCCCOc6ccc7ncccc7c6)CS5)sc4c3)c3ccc4c(S(=O)(=O)O)cc(S(=O)(=O)O)cc4c3C2(C)C)C(C)(C)c2c1ccc1c(S(=O)(=O)O)cc(S(=O)(=O)[O-])cc21` [D-ctrl], the “correlation (r) of maximum tumor fluorescence with maximum tumor size change” value ([1]; 3×DOX-treated mice, 1 h after probe) was “no significant correlation”, the “average signal enhancement between DOX- and saline-treated tumors” value ([1]; 4 h after probe administration) was −12% and the “tumor fluorescence lower than that of C-SNAF” value ([1]; DOX-treated mice, 1 h) was 10%. The “fluorescent intensity of apoptotic cells incubated with control probes” value [2] was “much lower fluorescent intensity”, the “fluorescence of apoptotic cells compared to C-SNAF” value [3] was “relatively weaker fluorescence” and the “products observed after incubation with caspase-3” value [4] was “no new products were observed”.

In the case of `O=C1C(=O)N(Cc2cn(CC[18F])nn2)c2ccc(S(=O)(=O)N3CCCC3COc3ccc(F)cc3F)cc21` (stereo not drawn) [[^18F]ICMT-11], the “Target/Background (Tumor/blood)” value ([5]; Tumor/blood) is listed as 1.2^c, the “time course of uptake at the apoptotic tumors” value ([5]; mouse, in vivo) is listed as “decreased over the time after injection” and the Treated/Untreated ([5]; treated and untreated group in different animal) is listed as 1.5^d.

B1: [^18F]Annexin V: known apoptosis PET tracer, PS binding (protein, UniProt P08758 2-320, looked up)
Annexin A5: AQVLRGTVTDFPGFDERADAETLRKAMKGLGTDEESILTLLTSRSNAQRQEISAAFKTLFGRDLLDDLKSELTGKFEKLIVALMKPSRLYDAYELKHALKGAGTNEKVLTEIIASRTPEELRAIKQVYEEEYGSSLEDDVVGDTSGYYQRMLVVLLQANRDPDAGIDEAQVEQDAQALFQAGELKWGTDEEKFITIFGTRSVSHLRKVFDKYMTISGFQIEETIDRETSGNLEQLLLAVVKSIRSIPAYLAETLYYAMKGAGTDDHTLIRVMVSRSEIDLFNIRKEFRKNFATSLYSMIKGDTSGDYKKALLLLCGEDD
modifications: 18F radiolabel
In the case of B1, the “% ID/g at target site” value ([6]; PET imaging) is given as 1.56 ± 0.2 % ID/g, the Target/Background ([6]; maximum value at the apoptotic tissue) is given as 3.4 and the Treated/Untreated ([6]; pre and post treatment in same animal) is given as 1.6^b.
